Here are results for 3 compounds from patent US5298614A, “Size limited double stranded poly I poly(cytidylate/4-thiouridylate)” (Nippon Shinyaku Co. Ltd., priority 1986, dated 1994).

Marks after values point to notes of the source that are not given here.

The test system of one data set is Hep-2. Description: Proliferation inhibiting action in nude mice bearing human tumor cells. The data set is classed as in vivo, human tumor cells in nude mice (BALB/c). Conditions: test sample 100 μg/mouse i.v., 5-FU 25 mg/kg i.p., twice a week for four weeks. The procedure:
(§1) Each 2.5×10^6 of cell strain HeLa S3 derived from human uterus neck and cell strain Hep-2 derived from throat cancer cells were transplanted under the skin of the nude abdomen of male nude mice 5 weeks old derived from BALB/c and, on the 7th to 10th day after the transplantation, living cohesion of tumor was confirmed. Then 100 μg/mouse of test sample (intravenously) and 25 mg/kg of 5-FU (intraperitoneally) were administered twice a week for four weeks. Tumor was extracted on the fourth week after the admininstration and the weight were measured.
(§2) The test samples used were the same as that in the above (1).

The next data set relates to HeLa S3. The description is as above. The data set is classed as in vivo, human tumor cells in nude mice (BALB/c). Conditions: test sample 100 μg/mouse i.v., 5-FU 25 mg/kg i.p., twice a week for four weeks. The protocol:
as §1, §2

The subject of data set [1] is interleukin 1 (cohesive cells from human peripheral blood). Kind of data set: Inducing activity of interleukin 1, 3H-thymidine in-take into PHA-stimulated mice thymus cells. The settings on record: samples 100α/ml; interleukin 1 1.25 units/ml; saline control 3370. The data set is classed as cell-based.
Description: Mononuclear particles were separated from normal human heparin-added peripheral blood by specific gravity centrifugation method using Ficoll-Hypaque (Pharmacia, Ficollpaque, trademark), the numbers were adjusted to 5×10^6 /ml in a 10% FCS-added RPMI medium, placed in a plastic dish, incubated at 37° C. for one hour, and the cohesive cells were used as an interleukin 1-producing source.
The sample to be tested was added to the 5×10^5 /ml of single particle, incubated at 37° C. for 24 hours, and the interleukin 1 activity in the supernatant liquid was determined by measuring a ^3 H-thymidine in-take method into a PHA-stimulated mice thymus cells using a proliferation ability of the thymus cells as a target. The control was physiological saline solution.
The nature of another data set: Pyrogen test to rabbits. The data set is classed as in vivo. Conditions: 0.2 microgram/kg i.v., 4 hours after injection. The protocol:
Injection of poly I:poly C in vivo has been known to be pyrogenic. […] On the contrary, the nucleic acid derivatives of the present invention (both SH and S--S substances in the above cytotoxic experiment) show only 0.25° C. rise in body temperature on average and the result of the pyrogenic test was negative. In those experiments, three rabbits per group were used and a solution of the sample (0.2 microgram/kg) in 10 ml of physiological saline solution was intravenously injected beneath the ear of the rabbits and the body temperature at 4 hours after the injection was observed.

The test system of another data set is venom phosphodiesterase. Description: Resistance against hydrolysis, time until hydrolysis arrives at 50%. The data set is classed as in vitro ADME. The settings on record: venom phosphodiesterase enzymatic reaction. The procedure:
Then the resistance against hydrolysis by RNase was compared in terms of the time ratio until the hydrolysis arrives at 50%. Thus, under conditions such as venom phosphodiesterase enzymatic reaction, poly I:poly C was 50 minutes while those of nucleic acid derivatives containing 4-thiouridine (SH group) and its S--S bond (n=20) are 60 minutes and, by contrast, those of nucleic acid derivatives (n=20) containing uridine (OH group) were as short as 20 minutes.

The nature of data set [2]: 50% melting temperature (Tm) and hyperchromicity, UV absorbance at 260 nm. The data set is classed as physicochemical. Conditions: neutral condition, aqueous buffer solution containing 0.1M sodium ion. The protocol: If the stabilization of the double stranded complex formation in nucleic acid polymer is shown with reference to the 50% melting temperature (Tm value), poly I:poly C has a 59.0° C. under a neutral condition in aqueous buffer solution containing 0.1M sodium ion while the SH-substituted nucleic acid derivative containing 4-thiouridine (n=20) and the S-substituted nucleic acid derivative (n=20) have a 59.5° C. and 59.3° C., respectively.
Among the nucleic acid derivatives obtained by the above example, those with 50 to 2,000 residue numbers of molecular size distribution were taken and their fusing curves were measured.
Sample I or II (0.7 OD/ml) in 10 mM Tris buffer (pH 7.5) containing 0.1M sodium chloride was warmed, at the rising rate of 2° C./4 minutes, from 20° C. to 90° C., the ultraviolet absorbancy at each temperature was measured at the wavelength of 260 nm, and an increase of ultraviolet absorbancy by a hyperchromicity was represented by a relative ratio giving the state at 20° C. as a base. A Beckmann-DU-8B spectrophotometer was used for the measurement. Melting of the nucleic acid derivatives was gradually observed during 35° C. to 55° C. and, at around 59° C., a sudden fusion curve was obtained. […]

For `O=c1[nH]cc(F)c(=O)[nH]1` [5-FU, 5-fluorouracil], the “Inhibition Rate (%)” value in the data set with Hep-2 was found to be 30%; with HeLa S3, 47%. The “Weight (g) ± S.E. of tumor” value in the data set with Hep-2 (control 0.88 ± 0.07) came out at 0.56 ± 0.12 g; in the data set on HeLa S3 (control 3.85 ± 0.23), 2.06 ± 0.35 g.
Interleukin 1: the “In-Take Amount” value in data set [1] is 12517 DPM (× 10^4).
Turning to “polyinosinic acid-polycitydylic acid [poly I:poly C]”, in “Pyrogen test to rabbits”, the “body temperature rise, average” value stood at 1.45 °C. Further, the “time until the hydrolysis arrives at 50%” value in the data set on venom phosphodiesterase is 50 min. Besides, in data set [2], the “50% melting temperature (Tm value)” value was found to be 59.0 °C.
